The subject of one assay is E. coli LZ3111. The assay can be described thus: Antibacterial activity, MIC, quinolone resistant strain (Table 2). It is filed as cell-based. The conditions noted are these: Escherichia coli, LZ3111, read-out: MIC LZ3111. Put shortly: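 Growth inhibition assessed by serial drug dilution in broth; endpoint was absence of macroscopically visible growth, reported as MIC, μg/mL.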

Another assay relates to E. coli 25922. Briefly: Antibacterial activity, microbroth dilution MIC (Table 1). It is filed as cell-based, Escherichia coli. Conditions: Escherichia coli; microbroth dilution; control Gram-negative E. coli 25922 strain; read-out: MIC, 25922. The method in brief: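 In a microbroth dilution test, the minimum inhibitory concentration was defined as the lowest compound level preventing growth seen by eye, and was given in μg/mL.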
(In broth dilution the organism is exposed to a series of concentrations in liquid medium.)

Assay [1] has as its system Escherichia coli (E. coli) BAS849. The description is as above. The assay is classed as cell-based. The conditions noted are these: microbroth dilution, super sensitive Gram-negative E. coli BAS849, read-out: MIC, BAS849. The method in brief:
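Using broth microdilution, MIC endpoints (μg/mL) mark where visible growth no longer appears; the panel spans sensitive and control Gram-negative strains plus a Gram-positive strain.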

Assay [2] concerns Staphylococcus aureus (S. aureus) 29213. Described as above. It is filed as cell-based. The conditions noted are these: microbroth dilution, Gram-positive S. aureus 29213, read-out: MIC, 29213. The method in brief:
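Broth microdilution; endpoint = no macroscopic growth; value = lowest inhibiting concn, μg/mL.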

The structures appear in SMILES notation. ≈ marks a conversion by molar mass, not a printed value. A value given as a limit tells only on which side of the number the result lay.

The MIC is the least concentration at which growth counts as inhibited. With `CCc1cc(C(=O)O)c(=O)[nH]c1-c1ccc2c(c1)cc(CN1CCc3ccccc3C1)n2C` [Cpd 134, 6-(2-((3,4-dihydroisoquinolin-2(1H)-yl)methyl)-1-methyl-1H-indol-5-yl)-5-ethyl-2-oxo-1,2-dihydropyridine-3-carboxylic acid], the MIC is 12.5 to 150 µg/mL (≈ 28.3 to 340 µM) in the assay with E. coli LZ3111, 1 to 3.5 µg/mL (≈ 2.26 to 7.93 µM) in the assay with E. coli 25922, less than 1 µg/mL in assay [1] and 3.5 to 12.5 µg/mL (≈ 7.93 to 28.3 µM) in assay [2].
On to `CCc1cc(C(=O)O)c(=O)[nH]c1-c1ccc2c(c1)cc(CN1Cc3cccnc3C1)n2C` [Cpd 135, 6-(2-((5H-pyrrolo[3,4-b]pyridin-6(7H)-yl)methyl)-1-methyl-1H-indol-5-yl)-5-ethyl-2-oxo-1,2-dihydropyridine-3-carboxylic acid], for which the MIC in the assay on E. coli LZ3111 was 12.5 to 150 µg/mL (≈ 29.2 to 350 µM); in the assay on E. coli 25922, 3.5 to 12.5 µg/mL (≈ 8.17 to 29.2 µM); in assay [1] it was less than 1 µg/mL; in assay [2], 12.5 to 150 µg/mL (≈ 29.2 to 350 µM).
Regarding `CCc1cc(C(=O)O)c(=O)[nH]c1-c1ccc2c(c1)cc(CN1CC3CCCNC3C1)n2C` (stereo not shown) [Cpd 136, 5-ethyl-6-(1-methyl-2-((tetrahydro-1H-pyrrolo[3,4-b]pyridin-6(2H,7H,7aH)-yl)methyl)-1H-indol-5-yl)-2-oxo-1,2-dihydropyridine-3-carboxylic acid], the MIC with E. coli LZ3111 was in the range of 12.5 to 150 µg/mL (≈ 28.8 to 345 µM); in the assay with E. coli 25922, 3.5 to 12.5 µg/mL (≈ 8.05 to 28.8 µM); in assay [1] it was 1 to 3.5 µg/mL (≈ 2.3 to 8.05 µM); in assay [2] it was 12.5 to 150 µg/mL (≈ 28.8 to 345 µM).
On to `CCc1cc(C(=O)O)c(=O)[nH]c1-c1ccc2c(c1)cc(CN1C[C@@H](C)O[C@@H](C)C1)n2C` [Cpd 138, 6-(2-((cis-2,6-dimethylmorpholino)methyl)-1-methyl-1H-indol-5-yl)-5-ethyl-2-oxo-1,2-dihydropyridine-3-carboxylic acid], for which the MIC in the assay with E. coli LZ3111 is 12.5 to 150 µg/mL (≈ 29.5 to 354 µM); in the assay with E. coli 25922, 3.5 to 12.5 µg/mL (≈ 8.26 to 29.5 µM); in assay [1], less than 1 µg/mL; in assay [2], 12.5 to 150 µg/mL (≈ 29.5 to 354 µM).
Take `CCc1cc(C(=O)O)c(=O)[nH]c1-c1ccc2c(c1)cc(CN1CCNCC1)n2C` [Cpd 139, 5-ethyl-6-(1-methyl-2-(piperazin-1-ylmethyl)-1H-indol-5-yl)-2-oxo-1,2-dihydropyridine-3-carboxylic acid]: the MIC is 12.5 to 150 µg/mL (≈ 31.7 to 380 µM) with E. coli LZ3111, 12.5 to 150 µg/mL (≈ 31.7 to 380 µM) with E. coli 25922, 1 to 3.5 µg/mL (≈ 2.54 to 8.87 µM) in assay [1] and 12.5 to 150 µg/mL (≈ 31.7 to 380 µM) in assay [2].
As to `CCc1cc(C(=O)O)c(=O)[nH]c1-c1ccc2c(c1)cc(CN1CCN(C(C)C)CC1)n2C` [Cpd 141, 5-ethyl-6-(2-((4-isopropylpiperazin-1-yl)methyl)-1-methyl-1H-indol-5-yl)-2-oxo-1,2-dihydropyridine-3-carboxylic acid], the MIC was 12.5 to 150 µg/mL (≈ 28.6 to 344 µM) with E. coli LZ3111, 1 to 3.5 µg/mL (≈ 2.29 to 8.02 µM) with E. coli 25922, less than 1 µg/mL in assay [1] and 12.5 to 150 µg/mL (≈ 28.6 to 344 µM) in assay [2].
On to `CCc1cc(C(=O)O)c(=O)[nH]c1-c1ccc2c(c1)cc(CN1CC3CC1CN3)n2C` (stereo not shown) [Cpd 142, 6-(2-(2,5-diazabicyclo[2.2.1]heptan-2-ylmethyl)-1-methyl-1H-indol-5-yl)-5-ethyl-2-oxo-1,2-dihydropyridine-3-carboxylic acid], for which the MIC lay within 12.5 to 150 µg/mL (≈ 30.8 to 369 µM) in the assay with E. coli LZ3111, 12.5 to 150 µg/mL (≈ 30.8 to 369 µM) in the assay with E. coli 25922, 3.5 to 12.5 µg/mL (≈ 8.61 to 30.8 µM) in assay [1] and 12.5 to 150 µg/mL (≈ 30.8 to 369 µM) in assay [2].
Turning to `CCc1cc(C(=O)O)c(=O)[nH]c1-c1ccc2c(c1)cc(CN1C[C@@H]3[C@H](C1)[C@H]3N(Cc1ccccc1)Cc1ccccc1)n2C` [Cpd 143, 6-(2-(((1R,5S,6s)-6-(dibenzylamino)-3-azabicyclo[3.1.0]hexan-3-yl)methyl)-1-methyl-1H-indol-5-yl)-5-ethyl-2-oxo-1,2-dihydropyridine-3-carboxylic acid], the MIC in the assay with E. coli LZ3111 is 12.5 to 150 µg/mL (≈ 21.3 to 256 µM); in the assay with E. coli 25922, 12.5 to 150 µg/mL (≈ 21.3 to 256 µM); in assay [1], less than 1 µg/mL; in assay [2], 3.5 to 12.5 µg/mL (≈ 5.97 to 21.3 µM).
For the compound `CCc1cc(C(=O)O)c(=O)[nH]c1-c1ccc2c(c1)cc(CN1CCN(C(C)=O)CC1)n2C` [Cpd 144, 6-(2-((4-acetylpiperazin-1-yl)methyl)-1-methyl-1H-indol-5-yl)-5-ethyl-2-oxo-1,2-dihydropyridine-3-carboxylic acid], the MIC with E. coli LZ3111 was 12.5 to 150 µg/mL (≈ 28.6 to 344 µM); with E. coli 25922, 3.5 to 12.5 µg/mL (≈ 8.02 to 28.6 µM); in assay [1] it was less than 1 µg/mL; in assay [2], 12.5 to 150 µg/mL (≈ 28.6 to 344 µM).
On to `CCc1cc(C(=O)O)c(=O)[nH]c1-c1ccc2c(c1)cc(CN(C)C(C)=O)n2C` [Cpd 145, 5-ethyl-6-(1-methyl-2-((N-methylacetamido)methyl)-1H-indol-5-yl)-2-oxo-1,2-dihydropyridine-3-carboxylic acid], for which the MIC is 12.5 to 150 µg/mL (≈ 32.8 to 393 µM) in the assay with E. coli LZ3111, 3.5 to 12.5 µg/mL (≈ 9.18 to 32.8 µM) in the assay on E. coli 25922, less than 1 µg/mL in assay [1] and 12.5 to 150 µg/mL (≈ 32.8 to 393 µM) in assay [2].

The values are drawn from patent US9409905B2, “Antibacterial compounds and methods for use” (PTC THERAPEUTICS, INC., priority 2011, dated 2016).
